Common to all, as to assay type: cell-based
The target in test [1] is T1, Human IDO-1 (Homo sapiens, UniProt P14902). Put plainly: IDO Kynurenine Assay with Human IDO1/HEK293 cells (Basal L-Kynurenine readout). The note with it: HEK Human IDO-1; for inhibition at 10 µM: HEK293, Primary SP, 10 μM compound, read-out: Basal_L-Kynurenine (IDO1 % inhib @ 10 μM); for IC50: Primary CRC, read-out: Basal_L-Kynurenine IDO1 Rel IC50. On the procedure: (§1) Compounds described in the Examples above were tested for inhibition of IDO activity with IDO Kynurenine Assay with Human ID01/HEK293 Cells.
T1 sequence (P14902 whole entry): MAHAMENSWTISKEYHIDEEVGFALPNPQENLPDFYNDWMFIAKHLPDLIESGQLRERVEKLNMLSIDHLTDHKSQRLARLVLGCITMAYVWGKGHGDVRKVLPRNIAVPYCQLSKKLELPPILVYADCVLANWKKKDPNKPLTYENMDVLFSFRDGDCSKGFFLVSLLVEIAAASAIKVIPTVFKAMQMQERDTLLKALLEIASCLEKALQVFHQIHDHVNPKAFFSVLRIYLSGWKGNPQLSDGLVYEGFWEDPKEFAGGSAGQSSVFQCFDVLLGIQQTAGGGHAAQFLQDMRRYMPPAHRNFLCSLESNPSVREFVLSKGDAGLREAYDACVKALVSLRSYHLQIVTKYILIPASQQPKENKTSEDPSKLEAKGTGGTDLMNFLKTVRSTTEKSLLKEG
(§2) Human ID01/HEK293 cells were seeded at 10,000 cells per 50 μL per well with RP Ml/phenol red free media containing 10% FBS in a 384-well black wall clear bottom tissue culture plate (Matrix Technologies LLC). 125 nL of certain concentration of compound was then added to each well using ECHO liquid handling systems. The cells were incubated for 20 hours in 37° C. incubator with 5% CO2.
The compound treatments were stopped by adding trichloroacetic acid (Sigma-Aldrich) to a final concentration at 0.2%. The cell plate was further incubated at 50° C. for 30 minute. The equal volume supernatant (20 μL) and 0.2% (w/v) Ehrlich reagent (4-dimethylaminobenzaldehyde, Sigma-Aldrich) in glacial acetic acid were mixed in a new clear bottom 384-well plate. This plate was then incubated at room temperature for 30 minute. The absorbance at 490 nm was measured on Envision plate reader.

The target in test [2] is T1, Human IDO-1. Put plainly: HEK Human IDO-1 cells, Basal N-formyl-kynurenine readout. Particulars: Primary CRC, read-out: Basal_N-formyl-kyn IDO1 Rel IC50. The protocol:
as §1, §2

A further test deals with Human ID01/HEK293 cells. Put plainly: HEK Human IDO-1 cells, Basal Viability. The note with it: Primary CRC, HEK Human IDO-1 cell viability, read-out: Basal_Viability Rel IC50. The protocol: as §2

A word on the IC50: it is the concentration that gives 50% inhibition. For the molecule `O=C(Nc1cccc(CN2CC=C(c3cccc(N4CCCCC4)n3)CC2)c1)NC1CCCCC1` [Example 5, 1-Cyclohexyl-3-[3-(6-piperidine-1-yl-3′,6′-dihydro-2′H-[2,4′]bipyridinyl-1′-ylmethyl)-phenyl]-urea], the inhibition at 10 µM at Human IDO-1 [1] was greater than 90%. Moreover, the IC50 at Human IDO-1 [1] was less than 2000 nM; at Human IDO-1 [2], less than 2000 nM; with Human ID01/HEK293 cells, greater than 50000 nM.

For `CN1CCN(c2cccc(C3=CCN(Cc4cccc(NC(=O)NC5CC5)c4)CC3)n2)CC1` [Example 9, 1-Cyclopropyl-3-{3-[6-(4-methyl-piperazin-1-yl)-3′,6′-dihydro-2′H-[2,4′]bipyridinyl-1′-ylmethyl]-phenyl}-urea], the inhibition at 10 µM on Human IDO-1 [1] is less than 90%. The IC50 at Human IDO-1 [1] is greater than 2000 nM; at Human IDO-1 [2], greater than 2000 nM; in the test with Human ID01/HEK293 cells, greater than 50000 nM.

Consider `CCNC(=O)Nc1cccc(CN2CC=C(c3cccc(N4CCOCC4)n3)CC2)c1` [Example 1, 1-Ethyl-3-[3-(6-morpholin-4-yl-3′,6′-dihydro-2′H-[2,4′]bipyridinyl-1′-ylmethyl)phenyl]urea], for which the inhibition at 10 µM at Human IDO-1 [1] was greater than 90%. Also, the IC50 at Human IDO-1 [1] was less than 2000 nM; at Human IDO-1 [2] it was less than 2000 nM; in the test on Human ID01/HEK293 cells, greater than 50000 nM.

In the case of `O=C(Nc1cccc(CN2CC=C(c3cccc(N4CCOCC4)n3)CC2)c1)NC1CCCCC1` [Example 2, 1-Cyclohexyl-3-[3-(6-morpholin-4-yl-3′,6′-dihydro-2′H-[2,4′]bipyridinyl-1′-ylmethyl)-phenyl]-urea], the inhibition at 10 µM at Human IDO-1 [1] was greater than 90%. Besides, the half-inhibitory concentration (IC50) is less than 2000 nM at Human IDO-1 [1], less than 2000 nM on Human IDO-1 [2] and greater than 50000 nM in the test on Human ID01/HEK293 cells.

For the molecule `CN1CCN(c2cccc(C3=CCN(Cc4cccc(NC(=O)NC5CCCCC5)c4)CC3)n2)CC1` [Example 8, 1-Cyclohexyl-3-{3-[6-(4-methyl-piperazin-1-yl)-3′,6′-dihydro-2′H-[2,4′]bipyridinyl-1′-ylmethyl]-phenyl}-urea], on Human IDO-1 [1], the inhibition at 10 µM is less than 90%. Also, the figures for the IC50 on Human IDO-1 [1], at Human IDO-1 [2] and in the test with Human ID01/HEK293 cells were greater than 2000 nM, greater than 2000 nM and greater than 50000 nM, respectively.

With `CCNC(=O)Nc1cccc(CN2CC=C(c3cccc(N4CCN(C)CC4)n3)CC2)c1` [Example 7, 1-Ethyl-3-{3-[6-(4-methyl-piperazin-1-yl)-3′,6′-dihydro-2′H-[2,4′]bipyridinyl-1′-ylmethyl]-phenyl}-urea], the inhibition at 10 µM at Human IDO-1 [1] is less than 90%. Moreover, the results for the IC50 on Human IDO-1 [1], at Human IDO-1 [2] and in the test with Human ID01/HEK293 cells were greater than 2000 nM, greater than 2000 nM and greater than 50000 nM, respectively.

`CCNC(=O)Nc1cccc(CN2CC=C(c3cccc(N4CCCCC4)n3)CC2)c1` [Example 4, 1-Ethyl-3-[3-(6-piperidine-1-yl-3′,6′-dihydro-2′H-[2,4′]bipyridinyl-1′-ylmethyl)-phenyl]-urea]: on Human IDO-1 [1], the inhibition at 10 µM was greater than 90%. Also, the IC50 on Human IDO-1 [1] is less than 2000 nM; at Human IDO-1 [2], less than 2000 nM; in the test on Human ID01/HEK293 cells it was greater than 50000 nM.

Regarding `O=C(Nc1cccc(CN2CC=C(c3cccc(N4CCCCC4)n3)CC2)c1)NC1CC1` [Example 6, 1-Cyclopropyl-3-[3-(6-piperidin-1-yl-3′,6′-dihydro-2′H-[2,4′]bipyridinyl-1′-ylmethyl)-phenyl]-urea], the inhibition at 10 µM on Human IDO-1 [1] was greater than 90%. Besides, the IC50 on Human IDO-1 [1] was less than 2000 nM; at Human IDO-1 [2] it was less than 2000 nM; in the test with Human ID01/HEK293 cells, greater than 50000 nM.

The record behind these values is patent US10858351B2, “Substituted tetrahydropyridine derivatives as IDO-1 inhibitors and uses thereof” (Alberta Research Chemicals Inc., priority 2017, dated 2020).
